Assay results taken from ChEMBL document CHEMBL6096715, “Novel TYK2 Inhibitors for Treating Autoimmune and Inflammatory Diseases” (ACS Med Chem Lett, 2025).

Target: Non-receptor tyrosine-protein kinase TYK2 (Homo sapiens, UniProt P29597)
Sequence (P29597 whole entry): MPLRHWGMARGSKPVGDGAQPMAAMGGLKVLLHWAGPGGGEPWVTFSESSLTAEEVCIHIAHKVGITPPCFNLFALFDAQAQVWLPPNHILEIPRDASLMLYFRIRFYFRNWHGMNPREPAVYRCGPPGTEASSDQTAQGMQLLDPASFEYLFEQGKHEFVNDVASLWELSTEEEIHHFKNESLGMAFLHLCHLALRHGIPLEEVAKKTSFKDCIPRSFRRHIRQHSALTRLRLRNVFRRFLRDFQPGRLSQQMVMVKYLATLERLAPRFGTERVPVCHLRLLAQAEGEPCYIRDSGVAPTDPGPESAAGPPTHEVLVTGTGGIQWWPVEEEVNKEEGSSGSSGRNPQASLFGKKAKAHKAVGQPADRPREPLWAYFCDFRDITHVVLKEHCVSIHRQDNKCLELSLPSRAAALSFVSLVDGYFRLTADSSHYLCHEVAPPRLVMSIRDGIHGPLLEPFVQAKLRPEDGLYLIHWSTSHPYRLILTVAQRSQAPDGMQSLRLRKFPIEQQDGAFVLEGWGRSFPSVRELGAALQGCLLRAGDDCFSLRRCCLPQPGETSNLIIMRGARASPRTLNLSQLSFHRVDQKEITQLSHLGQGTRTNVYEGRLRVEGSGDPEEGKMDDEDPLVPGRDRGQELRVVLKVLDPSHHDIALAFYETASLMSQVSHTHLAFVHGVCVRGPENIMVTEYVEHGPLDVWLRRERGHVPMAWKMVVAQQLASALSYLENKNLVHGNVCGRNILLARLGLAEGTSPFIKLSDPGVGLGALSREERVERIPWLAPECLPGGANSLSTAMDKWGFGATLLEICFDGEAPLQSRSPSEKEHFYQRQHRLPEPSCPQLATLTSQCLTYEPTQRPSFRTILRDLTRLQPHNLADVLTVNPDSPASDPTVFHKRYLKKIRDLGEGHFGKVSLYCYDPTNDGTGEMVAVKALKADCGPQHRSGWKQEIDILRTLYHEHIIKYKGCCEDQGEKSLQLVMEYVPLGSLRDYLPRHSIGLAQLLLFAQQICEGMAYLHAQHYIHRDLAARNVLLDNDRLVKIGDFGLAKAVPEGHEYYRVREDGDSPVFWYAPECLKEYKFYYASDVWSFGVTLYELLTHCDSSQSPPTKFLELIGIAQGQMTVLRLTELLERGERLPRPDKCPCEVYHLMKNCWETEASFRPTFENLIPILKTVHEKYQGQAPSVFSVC

Cn1cc(-c2cc3c(N4C[C@H]5CC[C@@H](C4)N5[C@H]4C[C@@H](C#N)C4(C)C)ccnn3c2)cn1
IC50: 2.33 nM
